Source: patent publication US6899886B2, “Acylacetonitriles, process for preparation thereof and miticides containing the same” (Otsuka Chemical Co., Ltd., priority 2000, dated 2005)

How the values were obtained:
Assay type in all cases: in vivo
[1] = test system: rice plants, cucumbers, cabbages, spinaches, lettuces, tomatoes, leeks, carrots or kidney bean plants; assay: Test Example 6: phytotoxicity test; details: 0.2 liters/m^2
Experimental: As test compounds, test compounds A, B and C above were used. The 20% wettable powders prepared in formulation example 2 were diluted 500 and 1,000 times. These diluted wettable powders were sprayed onto rice plants, cucumbers, cabbages, […], lettuces, tomatoes, leeks, carrots or kidney bean plants in an amount of 0.2 liters/m^2. The development of phytotoxicity was examined by the naked eye 7 and 14 days after the spraying. […] Further, 20% wettable powders using test compound B were diluted 50, 100 and 200 times, and sprayed onto cucumbers, cabbages, leeks or carrots in an amount of 0.2 liters/m^2. The development of phytotoxicity was examined by the naked eye 7 and 14 days after spraying.

Tea (yabukita) = assay: Test Example 5: phytotoxicity test on field crops; details: 20% wettable powder, degree of dilution 1000, 0.4 liters/m^2, 21 days after spraying
Experimental: (§1) The 20% wettable powders obtained in formulation example 2 were diluted to a predetermined degree and sprayed onto crops in a field in an amount of 0.4 liters/m^2. In a predetermined period after spraying, the development of phytotoxicity was observed by the naked eye. As test compounds, test compounds A, B and C above were used.

Apple (jonagold) = assay: Test Example 5: phytotoxicity test on field crops; details: 20% wettable powder, degree of dilution 1000, 0.4 liters/m^2, 14 days after spraying
Experimental: as §1

Apple (fuji) = assay: Test Example 5: phytotoxicity test on field crops; details: 20% wettable powder, degree of dilution 1000, 0.4 liters/m^2, 27 days after spraying
Experimental: as §1

Pear (hosui) = assay: Test Example 5: phytotoxicity test on field crops; details: 20% wettable powder, degree of dilution 2000, 0.4 liters/m^2, 21 days after spraying
Experimental: as §1

Grape (pione) = assay: Test Example 5: phytotoxicity test on field crops; details: 20% wettable powder, degree of dilution 2000, 0.4 liters/m^2, 28 days after spraying
Experimental: as §1

Orange (iyo) = assay: Test Example 5: phytotoxicity test on field crops; details: 20% wettable powder, degree of dilution 1000, 0.4 liters/m^2, 40 days after spraying
Experimental: as §1

two-spotted spider mites [2] = assay: Test Example 3: miticidal test on two-spotted spider mites at low concentration; details: 20 ppm emulsifiable concentrate, 2 ml sprayed on leaf with 30 female adults; counted 2 days later
Experimental: (§2) • Test compound A: Compound No. 1 in table 3 (the compound of the invention). • Test compound B: Compound No. 2 in table 3 (the compound of the invention). • Test compound C: Compound No. 10 in table 3 (the compound of the invention). • Test compound D: Intermediate No. II-25 disclosed in table 2 on page 101 of Japanese Unexamined Patent Publication No. 158137/1999. (2) Preparation of Emulsifiable Concentrate
(§3) Emulsifiable concentrates were prepared by adding the test compound, acetone and Sorpol 355 (surfactant) to distilled water. These emulsions were set to contain acetone in the proportion of 5 wt. % and Sorpol 355 in the proportion of 0.01 wt. %. The concentration of the test compound was set at 20 ppm.
2 ml of each emulsifiable concentrate prepared above was sprayed onto a piece of a kidney bean leaf (2×4 cm) with 30 female adults of two-spotted spider mites. After being air-dried, the leaf was placed in a thermostatic chamber having a temperature of 25±1° C. The number of live and dead mites was counted 2 days later. The mortality rate was calculated using the following equation: Mortality rate={1−(survival rate in treated area)/(survival rate in untreated area)}×100

two-spotted spider mites [3] = assay: Test Example 4: residual miticidal test on two-spotted spider mites (sprayed kidney bean plant); details: 200 ppm, 30 ml sprayed on kidney bean plant, counted 2 days later; for Adjusted mortality rate (%) 3 days after spraying: mites introduced 3 days after spraying; for Adjusted mortality rate (%) 5 days after spraying: mites introduced 5 days after spraying
Experimental: as §2, with “compound E: Compound” for “compound D: Intermediate”, “No. a-683” for “No. II-25”, “table 1-a” for “table 2”, “page 81” for “page 101”, “Emulsifiable Concentration” for “Emulsifiable Concentrate”
as §3, with “200” for “20”
30 ml of each emulsifiable concentrate prepared above was sprayed onto a kidney bean plant (at the stage of true leaf growth) in a 9-cm pot, and air-dried. The pot was placed in a glass greenhouse. Each of the first and second leaves was cut into a piece having a size of 3×5 cm, and 15 female adults of two-spotted spider mite were introduced thereto after 3 and 5 days of the spraying. Those pieces of leaves were placed in a thermostatic chamber having a temperature of 25±1° C. The number of live and dead mites was counted 2 days later. The mortality rate thereof was calculated in the same manner as in test example 3 above.

two-spotted spider mites [4] = assay: whole plant or invertebrate; details: 48 h; 200 ppm sprayed onto kidney bean leaves; after 2 days; read-out: mortality rate of the two-spotted spider mites
Text: A piece of non-woven fabric (4.5×5.5 cm) was suspended inside a plastic cup through an incision made in the lid of the plastic cup. After water was poured into the cup, the cup was covered with the lid. A kidney bean leaf (about 3.5×4.5 cm) was then placed on the sufficiently soaked, non-woven fabric. Another kidney bean leaf with two-spotted spider mites (about 30 mite samples) was placed on top of the first leaf, and the fabric and leaves were placed in a thermostatic chamber having a temperature of 25±2° C. and a humidity of 40%.
Miticidal formulations containing the compound of the invention (200 ppm) were prepared by adding an aqueous solution (100 ppm) of Sorpol 355 (manufactured by Toho Kagaku Co., Ltd.) to a methanol solution of the compound of the invention.
These miticidal formulations were sprayed onto the leaves, and the leaves were air-dried and placed in a thermostatic chamber (25±2° C., humidity 50%). The mortality rate of the two-spotted spider mites was calculated after 2 days.

Orange (sour orange) = assay: Test Example 5: phytotoxicity test on field crops; details: 20% wettable powder, degree of dilution 400, 0.4 liters/m^2, 40 days after spraying
Experimental: as §1

Eggplant (senryo) = assay: Test Example 5: phytotoxicity test on field crops; details: 20% wettable powder, degree of dilution 1000, 0.4 liters/m^2, 14 days after spraying
Experimental: as §1

Orange (mandarin) = assay: Test Example 5: phytotoxicity test on field crops; details: 20% wettable powder, degree of dilution 1000, 0.4 liters/m^2, 40 days after spraying
Experimental: as §1

[5] = 20% wettable powders diluted 500 and 1,000 times, nine plant kinds, 7 and 14 days after the spraying

Row | Compound | development of phytotoxicity [1, 5] | Phytotoxicity (Tea (yabukita)) | Phytotoxicity (Apple (jonagold)) | Phytotoxicity (Apple (fuji)) | Phytotoxicity (Pear (hosui)) | Phytotoxicity (Grape (pione)) | Phytotoxicity (Orange (iyo)) | mortality rate (two-spotted spider mites [2]) [%] | Adjusted mortality rate (%) 3 days after spraying (two-spotted spider mites [3]) [%] | Adjusted mortality rate (%) 5 days after spraying (two-spotted spider mites [3]) [%] | mortality at 200 ppm (two-spotted spider mites [4]) [%] | development of phytotoxicity ([1]; 20% wettable powders diluted 50, 100 and 200 times, cucumbers, cabbages, leeks or carrots, 7 and 14 days after spraying) | Phytotoxicity (Orange (sour orange)) | Phytotoxicity (Eggplant (senryo)) | Phytotoxicity (Orange (mandarin))
1 | COCCOC(=O)C(C#N)(C(=O)c1ccccc1C(F)(F)F)c1ccc(C(C)(C)C)cc1 (racemic) [Compound No. 10] | no development of phytotoxicity was observed | None | None | None | None | None | None | 100 | 100 | 100 | – | – | – | – | –
2 | COC(=O)C(C#N)(C(=O)c1ccccc1C(F)(F)F)c1ccc(Cl)cc1 (centres unmarked) [Compound No. 30, Methyl 2-(4-Chlorophenyl)-2-(2-Trifluoromethylbenzoyl)Cyanoacetate] | – | – | – | – | – | – | – | – | – | – | ≥ 50 | – | – | – | –
3 | COC(=O)C(C#N)(C(=O)c1ccccc1C(F)(F)F)c1ccc(C(C)(C)C)cc1 (racemic) [Compound No. 1] | no development of phytotoxicity was observed | None | None | None | None | None | None | 100 | 100 | 95 | – | – | – | – | –
4 | CCOC(=O)C(C#N)(C(=O)c1ccccc1C(F)(F)F)c1ccc(C(C)(C)C)cc1 (racemic) [Compound No. 2] | no development of phytotoxicity was observed | None | None | None | None | None | None | 100 | 100 | 93 | – | no development of phytotoxicity was observed | None | None | None
